Measurements taken from publication PMC7053711, “A G protein–coupled receptor mediates neuropeptide-induced oocyte maturation in the jellyfish Clytia” (PLoS Biology, 2020).
Entries after “also recorded” stand apart in the source; their conditions may differ.

Tests used:
[1] = system: Platynereis FLamide receptor; assay: Positive control of deorphanization assay, luminescence; assay type: cell-based; conditions: 1 μM AKYFL-NH2
Excerpt: Fig 1 Identification of the Clytia MIHR. (A) Diagram of a Clytia gonad showing the different tissues used for RNA-seq and GPCR expression comparisons. A total of 536 putative GPCRs identified in Clytia mixed-stages transcriptome were assigned to the three main GPCR classes (A, B, C) or “other” based on Pfam signatures. The 16 top candidate MIH GPCRs were selected based on oocyte enrichment, relatedness to known bilaterian class-A neuropeptide GPCRs, and Pfam information. (B) Luminescence response of CHO-K1 cells expressing the putative Clytia MIH GPCR treated with neuropeptide mixes lacking MIH activity (purple bars), MIH tetrapeptides identified from C. hemisphaerica (blue bars) or Cladonema radiatum (green bars), or related penta- and tripeptides previously shown to be ineffective in triggering oocyte maturation in vivo (red bars). Empty pcDNA3.1 vector was used as negative control and Platynereis FLamide and its receptor as a positive control (gray bars). Peptide concentrations all 1 μM. Absolute units of luminescence were normalized using the positive control; data are shown as mean ± standard error of the mean (n = 3). […] Luminescence values were normalized relative to the maximum of fitted dose–response curves and are shown as mean ± standard error of the mean (n = 3). Half maximal effective concentration (EC50) values were calculated as means of 3 independent experiments. […]

hydrozoan oocytes = conditions: cell-permeable analogue of cAMP; ref [3],[21]; cited from earlier work
Excerpt: We performed a series of oocyte maturation and spawning assays, comparing the responses of wild-type and MIHR mutant isolated gonads and oocytes to different stimuli (Fig 4). […] I ...

[2] = system: MIHR mutant (n5-23, n5-13) isolated female gonads; assay: Gonad spawning assay, MIHR mutant isolated gonads; design: species or system Clytia hemisphaerica; conditions: isolated MIHR mutant gonads, 4 mM Br-cAMP, washed after 5 minutes
Protocol: We performed a series of oocyte maturation and spawning assays, comparing the responses of wild-type and MIHR mutant isolated gonads and oocytes to different stimuli (Fig 4).
Sexually mature MIHR mutant medusae from colonies n5-13 and n5-23 and wild-type medusae were cultured on the same day–night cycle. Individual gonads were dissected in the evening after afternoon spawning. To test the light response, one group of each was transferred to 100 μL MFSW in wells of 96-well plastic plates, covered overnight, and re-exposed to white light the following day. To test responses to MIH and cAMP, other groups of dissected gonads were cultured overnight in constant light, then transferred to 96-well plastic plates for two hours. MIH was added to wells as an equal volume of 200 nM WPRPamide (GenScript) stock in MFSW was added to give a final concentration of 100 nM. Alternatively, a stock of 20 mM bromo adenosine 3′,5′cyclic monophosphate (Br-cAMP–Fluka; Sigma Aldrich) in distilled water was added to give a final concentration of 4 mM. Gonads were washed after 5 minutes incubation in Br-cAMP. Oocyte maturation was scored after 30 minutes as germinal vesicle breakdown (GVBD), i.e., visible dissolution of the oocyte nuclear membrane upon entry into M phase, which in all cases was followed by spawning about 1 hour later.
(§1) Supplementary file pbio.3000614.s013.xlsx: S3 Data Numerical data corresponding to Fig 4A and 4C. The first tab collects all the raw data from 3 independent gonad spawning assays. Information corresponding to the Fisher exact tests is also shown. […] The means and standard deviations were used to prepare the graph in Fig 4C. Information corresponding to the Fisher exact tests is also shown. (XLSX) Click here for additional data file.

[3] = system: fully grown oocytes isolated from MIHR mutant (n5-23) gonads; assay: Oocyte maturation assay, MIHR mutant isolated oocytes (GVBD); assay type: cell-based, Clytia hemisphaerica
Excerpt: (§2) Fig 4 Oocyte maturation failure in MIHR mutant medusae. Oocyte maturation assays performed using isolated gonads (A, B) or isolated oocytes (C) from MIHR mutant jellyfish compared to WT. In A and C, bar heights represent mean percentages of 3 independent experiments and error bars show standard deviations. Total gonad or oocyte numbers for each treatment are indicated in gray. (A) Spawning response of isolated gonads from WT and n5-23 female medusae. Three treatments were compared as indicated above each panel: Light: light stimulation after incubation in the dark; MIH: treatment of light-maintained gonads with 100 nM WPRPamide; cAMP: treatment of light-maintained gonads with 4 mM Br-cAMP. […] Full datasets from three independent experiments are available in S3 Data. (B) Light microscope images illustrating gonads from an equivalent experiment performed with n5-13 female MIHR mutant medusae 120 minutes after the indicated treatments. Scale bar: 500 μm. […] Full datasets from 3 independent experiments are available in S3 Data. Br-cAMP, bromoadenosine 3′,5′-cyclic monophosphate; cAMP, cyclic adenosine monophosphate; KO, knockout; MIH, maturation-inducing hormone; MIHR, MIH receptor; WT, wild-type.
(§3) Fully grown oocytes were isolated manually from dissected gonads of wild-type and MIHR KO mutant jellyfish prepared as above. Maturation assays were performed in wells of 96-well plates or small plastic petri dishes lined with 2% agarose in MFSW. Spontaneous maturation occurs at a low frequency in control oocytes. To test MIH-induced maturation, 10 μL WPRPamide from 1 μM solution in MFSW was added to a final concentration of 100 nM. In some experiments, Br-cAMP from a 20 mM stock in H2O was used at a final concentration of 4 mM. GVBD was scored at 30 minutes, every 5 minutes, depending on experiments.
as §1

[4] = system: fully grown oocytes isolated from WT gonads; assay: Oocyte maturation assay, wild-type isolated oocytes (GVBD); assay type: cell-based, Clytia hemisphaerica
Excerpt: as §2, §3, §1

[5] = 100 nM WPRPamide or 4 mM Br-cAMP

Normalised response (to positive control), mean [1]	Compound	hydrozoan oocyte maturation (hydrozoan oocytes)	oocyte maturation and spawning of MIHR mutant gonads, Br-cAMP treatment [2]	maturation of isolated MIHR mutant oocytes, Br-cAMP ([3]; 4 mM Br-cAMP)	Percentage of Oocyte maturation, Mean ([3]; cAMP (4mM BrcAMP), MIHR KO, mean of 3 replicates, Sdev 6.00)	maturation of isolated WT oocytes [4, 5]	time to visible GVBD, isolated WT oocytes [4, 5] [min]	Percentage of Oocyte maturation, Mean ([4]; cAMP (4mM BrcAMP), WT, mean of 3 replicates, Sdev 14.23)
1	AKYFL-NH2 [(+) Ctrl, ligand for Platynereis FLamide receptor]	–	–	–	–	–	–	–
–	Nc1ncnc2c1nc(Br)n2[C@@H]1O[C@@H]2COP(=O)(O)O[C@H]2[C@H]1O [Br-cAMP, bromoadenosine 3′,5′-cyclic monophosphate, reference compound]	induces hydrozoan oocyte maturation	rescued meiotic maturation and spawning; also recorded: rescued the phenotype of MIHR mutant gonads, efficiently triggering oocyte maturation and spawning; also recorded: provoked oocyte maturation and spawning	promoted maturation of isolated fully grown MIHR mutant oocytes; also recorded: only Br-cAMP induced maturation of MIHR KO oocytes	89.91	triggered maturation of WT oocytes	20 to 30	84.33
